What follows are molecules tested against α-melanocyte-stimulating hormone receptor (hMC4R) (Homo sapiens (Human), UniProt P32245) (assay: In vitro binding affinity assay using hMC4R (radioligand competition binding, [125I]-(Nle4, D-Phe7)-α-MSH)). Details: geometric mean, read-out: Ki (nM) geometric.
How it was run: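 Membranes from CHO cells stably expressing hMC4R (2 μg/well) incubated 2 h RT with [125I]-NDP-α-MSH and compound (300 nM-0.01 nM, 1% DMSO); 2 μM α-MSH defined nonspecific binding. Filtration and scintillation counting; Ki from IC50 via Cheng-Prusoff.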

Chain of α-melanocyte-stimulating hormone receptor (hMC4R) (P32245 whole entry): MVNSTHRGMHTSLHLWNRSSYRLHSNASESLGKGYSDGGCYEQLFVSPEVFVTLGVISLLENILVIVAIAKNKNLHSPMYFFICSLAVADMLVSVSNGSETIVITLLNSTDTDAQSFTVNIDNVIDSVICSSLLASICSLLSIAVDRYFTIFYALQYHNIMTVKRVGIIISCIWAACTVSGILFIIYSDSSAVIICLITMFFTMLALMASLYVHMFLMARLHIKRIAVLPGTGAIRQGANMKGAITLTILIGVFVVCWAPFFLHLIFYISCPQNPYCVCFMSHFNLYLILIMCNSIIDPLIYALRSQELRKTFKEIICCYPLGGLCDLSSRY

SMILES	Ki [nM]
COc1cc([C@@H](C)C(=O)N2CC[C@@]3(CCc4cc(-c5nc(C(F)F)n(C)n5)c(C)nc4N3)C2)c(F)cn1 [Example 122, (2R)-1-{(2S)-6-[5-(difluoromethyl)-1-methyl-1H-1,2,4-triazol-3-yl]-7-methyl-3,4-dihydro-1H-spiro[1,8-naphthyridine-2,3′-pyrrolidin]-1′-yl}-2-(5-fluoro-2-methoxypyridin-4-yl)propan-1-one]	0.49
COc1cc([C@@H](C)C(=O)N2CC[C@@]3(CCc4cc(-c5ncc(Cl)cn5)c(C)nc4N3)C2)c(F)cn1 [Example 144, (2R)-1-[(2S)-6-(5-chloropyrimidin-2-yl)-7-methyl-3,4-dihydro-1H-spiro[1,8-naphthyridine-2,3′-pyrrolidin]-1′-yl]-2-(5-fluoro-2-methoxypyridin-4-yl)propan-1-one]	2
COc1cc([C@@H](C)C(=O)N2CC[C@@]3(CCc4cc(Cl)c(C)nc4N3)C2)c(F)cn1 (single isomer, unassigned) [Example 102]	110
COc1cc([C@@H](C)C(=O)N2CC[C@@]3(CCc4cc(-c5nnn(C)n5)c(C)nc4N3)C2)nc(C(F)F)n1 (single isomer, unassigned) [Example 127]	0.97
COc1cc([C@@H](C)C(=O)N2CC[C@@]3(CCc4cc(-c5ncc(C(F)(F)F)cn5)c(C)nc4N3)C2)c(F)cn1 [Example 145, (2R)-2-(5-fluoro-2-methoxypyridin-4-yl)-1-{(2S)-7-methyl-6-[5-(trifluoromethyl)pyrimidin-2-yl]-3,4-dihydro-1H-spiro[1,8-naphthyridine-2,3′-pyrrolidin]-1′-yl}propan-1-one]	8.7

Now from value to molecule:

Ki [nM]	SMILES
85	COc1cc([C@@H](C)C(=O)N2CC[C@@]3(CCc4cc(-c5cccc(-c6cnco6)c5)c(C)nc4N3)C2)c(F)cn1 [Example 173, (2R)-2-(5-fluoro-2-methoxypyridin-4-yl)-1-{(2S)-7-methyl-6-[3-(1,3-oxazol-5-yl)phenyl]-3,4-dihydro-1H-spiro[1,8-naphthyridine-2,3′-pyrrolidin]-1′-yl}propan-1-one]
18	COc1cc([C@@H](C)C(=O)N2CC[C@@]3(CCc4cc(-c5ccc(OC(F)F)nc5)c(C)nc4N3)C2)c(F)cn1 [Example 159, (2R)-1-{(2S)-6-[6-(difluoromethoxy)pyridin-3-yl]-7-methyl-3,4-dihydro-1H-spiro[1,8-naphthyridine-2,3′-pyrrolidin]-1′-yl}-2-(5-fluoro-2-methoxypyridin-4-yl)propan-1-one]
18	COc1cc([C@@H](C)C(=O)N2CC[C@@]3(CCc4cc(-c5nccnc5C)c(C)nc4N3)C2)c(F)cn1 [Example 164, (2R)-2-(5-fluoro-2-methoxypyridin-4-yl)-1-[(2S)-7-methyl-6-(3-methylpyrazin-2-yl)-3,4-dihydro-1H-spiro[1,8-naphthyridine-2,3′-pyrrolidin]-1′-yl]propan-1-one]
27	COc1cc([C@@H](C)C(=O)N2CC[C@@]3(CCc4cc(-c5ccc(C(F)(F)F)cn5)c(C)nc4N3)C2)c(F)cn1 [Example 155, (2R)-2-(5-fluoro-2-methoxypyridin-4-yl)-1-{(2S)-7-methyl-6-[5-(trifluoromethyl)pyridin-2-yl]-3,4-dihydro-1H-spiro[1,8-naphthyridine-2,3′-pyrrolidin]-1′-yl}propan-1-one]
0.27	COc1cc(C(C)C(=O)N2CC[C@@]3(CCc4cc(-c5ncccn5)c(C)nc4N3)C2)cc(OC(F)F)n1 (single isomer, unassigned) [Example 192]
59	COc1cc([C@@H](C)C(=O)N2CC[C@@]3(CCc4cc(-c5cncc(C6CC6)n5)c(C)nc4N3)C2)c(F)cn1 [Example 177, (2R)-1-[(2S)-6-(6-cyclopropylpyrazin-2-yl)-7-methyl-3,4-dihydro-1H-spiro[1,8-naphthyridine-2,3′-pyrrolidin]-1′-yl]-2-(5-fluoro-2-methoxypyridin-4-yl)propan-1-one]
4	COc1cc([C@@H](C)C(=O)N2CC[C@@]3(CCc4cc(-c5cc(C)nc(C(C)C)n5)c(C)nc4N3)C2)c(F)cn1 [Example 183, (2R)-2-(5-fluoro-2-methoxypyridin-4-yl)-1-{(2S)-7-methyl-6-[6-methyl-2-(propan-2-yl)pyrimidin-4-yl]-3,4-dihydro-1H-spiro[1,8-naphthyridine-2,3′-pyrrolidin]-1′-yl}propan-1-one]
43	COc1cc([C@@H](C)C(=O)N2CC[C@@]3(CCc4cc(-c5cnc(C(F)(F)F)nc5)c(C)nc4N3)C2)c(F)cn1 [Example 170, (2R)-2-(5-fluoro-2-methoxypyridin-4-yl)-1-{(2S)-7-methyl-6-[2-(trifluoromethyl)pyrimidin-5-yl]-3,4-dihydro-1H-spiro[1,8-naphthyridine-2,3′-pyrrolidin]-1′-yl}propan-1-one]
0.62	COc1cc([C@@H](C)C(=O)N2CC[C@@]3(CCc4cc(-c5nc6n(n5)CCC6(F)F)c(C)nc4N3)C2)c(F)cn1 [Example 147, (2R)-1-[(2S)-6-(7,7-difluoro-6,7-dihydro-5H-pyrrolo[12-b][1,2,4]triazol-2-yl)-7-methyl-3,4-dihydro-1H-spiro[1,8-naphthyridine-2,3′-pyrrolidin]-1′-yl]-2-(5-fluoro-2-methoxypyridin-4-yl)propan-1-one]
8.2	COc1cc([C@@H](C)C(=O)N2CC[C@@]3(CCc4cc(-c5nc(C(C)C)ns5)c(C)nc4N3)C2)c(F)cn1 [Example 162, (2R)-2-(5-fluoro-2-methoxypyridin-4-yl)-1-{(2S)-7-methyl-6-[3-(propan-2-yl)-1,2,4-thiadiazol-5-yl]-3,4-dihydro-1H-spiro[1,8-naphthyridine-2,3′-pyrrolidin]-1′-yl}propan-1-one]
6.3	COc1cc([C@@H](C)C(=O)N2CC[C@@]3(CCc4cc(-c5nc(C)cc(C)n5)c(C)nc4N3)C2)c(F)cn1 [Example 184, (2R)-1-[(2S)-6-(4,6-dimethylpyrimidin-2-yl)-7-methyl-3,4-dihydro-1H-spiro[1,8-naphthyridine-2,3′-pyrrolidin]-1′-yl]-2-(5-fluoro-2-methoxypyridin-4-yl)propan-1-one]
110	COc1cc([C@@H](C)C(=O)N2CC[C@@]3(CCc4cc(-c5ncc(C(F)(F)F)s5)c(C)nc4N3)C2)c(F)cn1 [Example 201, (2R)-2-(5-fluoro-2-methoxypyridin-4-yl)-1-{(2S)-7-methyl-6-[5-(trifluoromethyl)-1,3-thiazol-2-yl]-3,4-dihydro-1H-spiro[1,8-naphthyridine-2,3′-pyrrolidin]-1′-yl}propan-1-one]
1.3	COc1cc([C@@H](C)C(=O)N2CC[C@@]3(CCc4cc(-c5nc(C(F)F)n(C6CC6)n5)c(C)nc4N3)C2)c(F)cn1 [Example 189, (2R)-1-{(2S)-6-[1-cyclopropyl-5-(difluoromethyl)-1H-1,2,4-triazol-3-yl]-7-methyl-3,4-dihydro-1H-spiro[1,8-naphthyridine-2,3′-pyrrolidin]-1′-yl}-2-(5-fluoro-2-methoxypyridin-4-yl)propan-1-one]
3.2	COc1cc([C@@H](C)C(=O)N2CC[C@@]3(CCc4cc(-c5cnc(C)cn5)c(C)nc4N3)C2)c(F)cn1 [Example 158, (2R)-2-(5-fluoro-2-methoxypyridin-4-yl)-1-[(2S)-7-methyl-6-(5-methylpyrazin-2-yl)-3,4-dihydro-1H-spiro[1,8-naphthyridine-2,3′-pyrrolidin]-1′-yl]propan-1-one]

Same assay, conditions: geometric mean, read-out: Ki (nM) geometric mean

Ki [nM]	SMILES
2.5	COc1cnc(-c2cc3c(nc2C)N[C@@]2(CC3)CCN(C(=O)[C@H](C)c3cc(OC)ncc3F)C2)nc1 [Example 67, (2R)-2-(5-fluoro-2-methoxypyridin-4-yl)-1-[(2S)-6-(5-methoxypyrimidin-2-yl)-7-methyl-3,4-dihydro-1H-spiro[1,8-naphthyridine-2,3′-pyrrolidin]-1′-yl]propan-1-one]
21	COc1cc([C@@H](C)C(=O)N2CC[C@@]3(CCc4ccc(C)nc4N3)C2)nc(C)n1 (single isomer, unassigned) [Example 23, 2-(6-methoxy-2-methylpyrimidin-4-yl)-1-(7-methyl-3,4-dihydro-1H-spiro[1,8-naphthyridine-2,3′-pyrrolidin]-1′-yl)propan-1-one]
150	COc1cc([C@@H](C)C(=O)N2CC[C@@]3(CCc4cc(-c5ncccn5)c(C)nc4N3)C2)c(C(F)(F)F)cn1 (single isomer, unassigned) [Example 40]
35	COc1cc([C@@H](C)C(=O)N2CC[C@@]3(CCc4cc(-c5ncc(C(F)(F)F)cc5F)c(C)nc4N3)C2)c(F)cn1 [Example 68, (2R)-2-(5-fluoro-2-methoxypyridin-4-yl)-1-{(2S)-6-[3-fluoro-5-(trifluoromethyl)pyridin-2-yl]-7-methyl-3,4-dihydro-1H-spiro[1,8-naphthyridine-2,3′-pyrrolidin]-1′-yl}propan-1-one]

SMILES	Ki [nM]
COc1cc([C@@H](C)C(=O)N2CC[C@@]3(CCc4cc(-c5ncccn5)c(C)nc4N3)C2)c(F)cn1 [Example 14, (2R)-2-(5-Fluoro-2-methoxypyridin-4-yl)-1-[(2S)-7-methyl-6-(pyrimidin-2-yl)-3,4-dihydro-1H-spiro[1,8-naphthyridine-2,3′-pyrrolidin]-1′-yl]propan-1-one]	0.46
COc1cc([C@@H](C)C(=O)N2CC[C@@]3(CCc4cc(-c5nnn(C)n5)c(C)nc4N3)C2)c(F)cn1 [Example 13, (2R)-2-(5-fluoro-2-methoxypyridin-4-yl)-1-[(2S)-7-methyl-6-(2-methyl-2H-tetrazol-5-yl)-3,4-dihydro-1H-spiro[1,8-naphthyridine-2,3′-pyrrolidin]-1′-yl]propan-1-one]	0.6
COc1cc([C@H](C)C(=O)N2CC[C@]3(CCc4cc(-c5ncccn5)c(C)nc4N3)C2)c(F)cn1 [Example 30, (2S)-2-(5-fluoro-2-methoxypyridin-4-yl)-1-[(2R)-7-methyl-6-(pyrimidin-2-yl)-3,4-dihydro-1H-spiro[1,8-naphthyridine-2,3′-pyrrolidin]-1′-yl]propan-1-one]	> 250

— patent US20250084084A1, “Crystalline form of (2R)-2-(5-fluoro-2-methoxypyridin-4-yl)-1-[(2S)-7-methyl-6-(pyrimidin-2-yl)-3,4-dihydro-1H-spiro[1,8-naphthyridine-2,3-pyrrolidin]-1-yl]propan-1-one” (Pfizer Inc., priority 2020, published 2025)
